# Results from ChEMBL document CHEMBL1201862, “PubChem BioAssay data set” (2004).
#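 Cells were grown in 96-well plates and exposed to each compound for 48 hours at five concentrations; endpoints were interpolated linearly between bracketing concentrations, or set to the highest concentration if not reached. GI50 marks 50% less growth.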 Activity calls are given as the source filed them. No stated cut-off is given here; in the data, active = GI50 up to about 1.1 µM and inactive = higher.
# Experiments:
# Assay in all cases: NCI-60 cell line screen, 48 h
# [1] = system: 786-0
# [2] = system: A549
# [3] = system: ACHN
# [4] = system: CAKI-1
# [5] = system: CCRF-CEM
# [6] = system: COLO 205
# [7] = system: DLD-1
# [8] = system: DMS-114
# [9] = system: DMS-273
# [10] = system: EKVX
# [11] = system: HCC 2998
# [12] = system: HCT-116
# [13] = system: HCT-15
# [14] = system: HL-60
# [15] = system: HOP-62
# [16] = system: HT-29
# [17] = system: IGROV-1
# [18] = system: K562
# [19] = system: KM-20L2
# [20] = system: LOX IMVI
# [21] = system: LXFL 529
# [22] = system: M14
# [23] = system: M19-MEL
# [24] = system: MOLT-4
# [25] = system: Malme-3M
# [26] = system: NCI-H226
# [27] = system: NCI-H23
# [28] = system: NCI-H460
# [29] = system: NCI-H522
# [30] = system: OVCAR-3
# [31] = system: OVCAR-5
# [32] = system: OVCAR-8
# [33] = system: RPMI-8226
# [34] = system: RXF 393
# [35] = system: SF-268
# [36] = system: SF-295
# [37] = system: SF-539
# [38] = system: SK-MEL-28
# [39] = system: SK-MEL-2
# [40] = system: SK-MEL-5
# [41] = system: SK-OV-3
# [42] = system: SN12C
# [43] = system: SNB-19
# [44] = system: SNB-75
# [45] = system: SNB-78
# [46] = system: SR
# [47] = system: SW-620
# [48] = system: TK-10
# [49] = system: U-251
# [50] = system: UACC-257
# [51] = system: UACC-62
# [52] = system: UO-31
# [53] = system: A498
# [54] = system: HOP-92
# [55] = system: KM12
# [56] = system: OVCAR-4
structure (smiles),measurement,setting,value
CCCN(CCC)c1c([N+](=O)[O-])cc(C(=O)N(CC)CC)cc1[N+](=O)[O-],GI50,[1],27.5 µM (inactive)
same,GI50,[2],12.3 µM (inactive)
same,GI50,[3],25.5 µM (inactive)
same,GI50,[4],25.1 µM (inactive)
same,GI50,[5],20.8 µM (inactive)
same,GI50,[6],18.1 µM (inactive)
same,GI50,[7],17.6 µM (inactive)
same,GI50,[8],10.9 µM (inactive)
same,GI50,[9],17.6 µM (inactive)
same,GI50,[10],18.6 µM (inactive)
same,GI50,[11],37.1 µM (inactive)
same,GI50,[12],13.6 µM (inactive)
same,GI50,[13],21.4 µM
same,GI50,[14],14 µM (inactive)
same,GI50,[15],29.4 µM (inactive)
same,GI50,[16],22.6 µM (inactive)
same,GI50,[17],32.3 µM (inactive)
same,GI50,[18],12.6 µM (inactive)
same,GI50,[19],18.4 µM (inactive)
same,GI50,[20],16 µM (inactive)
same,GI50,[21],19.1 µM (inactive)
same,GI50,[22],23.2 µM (inactive)
same,GI50,[23],20.7 µM (inactive)
same,GI50,[24],16.4 µM (inactive)
same,GI50,[25],16.3 µM (inactive)
same,GI50,[26],23 µM (inactive)
same,GI50,[27],7.55 µM (inactive)
same,GI50,[28],15.9 µM (inactive)
same,GI50,[29],10.2 µM (inactive)
same,GI50,[30],14.5 µM (inactive)
same,GI50,[31],30.9 µM (inactive)
same,GI50,[32],18.3 µM (inactive)
same,GI50,[33],11.9 µM (inactive)
same,GI50,[34],17.4 µM (inactive)
same,GI50,[35],17.6 µM (inactive)
same,GI50,[36],23 µM (inactive)
same,GI50,[37],24.7 µM (inactive)
same,GI50,[38],22.9 µM (inactive)
same,GI50,[39],16.7 µM (inactive)
same,GI50,[40],13.3 µM (inactive)
same,GI50,[41],25.5 µM (inactive)
same,GI50,[42],22.4 µM (inactive)
same,GI50,[43],20 µM (inactive)
same,GI50,[44],21.3 µM (inactive)
same,GI50,[45],31 µM (inactive)
same,GI50,[46],14.8 µM (inactive)
same,GI50,[47],28.6 µM (inactive)
same,GI50,[48],29 µM (inactive)
same,GI50,[49],15.5 µM (inactive)
same,GI50,[50],16.3 µM (inactive)
same,GI50,[51],17.7 µM (inactive)
same,GI50,[52],18 µM (inactive)
O=c1cc2n(c(=O)[nH]1)C1OC(C(O)C1O)[C@@H]2CCO (stereo partly specified),GI50,[1],> 100 µM (inactive)
same,GI50,[53],> 100 µM (inactive)
same,GI50,[2],> 100 µM (inactive)
same,GI50,[3],> 100 µM (inactive)
same,GI50,[4],> 100 µM (inactive)
same,GI50,[5],> 100 µM (inactive)
same,GI50,[7],> 100 µM (inactive)
same,GI50,[8],> 100 µM (inactive)
same,GI50,[9],> 100 µM (inactive)
same,GI50,[10],> 100 µM (inactive)
same,GI50,[14],> 100 µM (inactive)
same,GI50,[15],> 100 µM (inactive)
same,GI50,[54],> 100 µM (inactive)
same,GI50,[16],> 100 µM (inactive)
same,GI50,[17],> 100 µM (inactive)
same,GI50,[18],> 100 µM (inactive)
same,GI50,[19],> 100 µM (inactive)
same,GI50,[55],> 100 µM (inactive)
same,GI50,[20],> 100 µM (inactive)
same,GI50,[21],> 100 µM (inactive)
same,GI50,[22],> 100 µM (inactive)
same,GI50,[23],> 100 µM (inactive)
same,GI50,[24],> 100 µM (inactive)
same,GI50,[25],> 100 µM (inactive)
same,GI50,[26],> 10 µM (inactive)
same,GI50,[27],> 100 µM (inactive)
same,GI50,[28],> 100 µM (inactive)
same,GI50,[29],> 100 µM (inactive)
same,GI50,[56],> 100 µM (inactive)
same,GI50,[31],> 100 µM (inactive)
same,GI50,[32],> 100 µM (inactive)
same,GI50,[34],> 100 µM (inactive)
same,GI50,[35],> 100 µM (inactive)
same,GI50,[36],> 100 µM (inactive)
same,GI50,[37],> 100 µM (inactive)
same,GI50,[38],> 100 µM (inactive)
same,GI50,[39],> 100 µM (inactive)
same,GI50,[40],> 100 µM (inactive)
same,GI50,[41],> 100 µM (inactive)
same,GI50,[42],> 100 µM (inactive)
same,GI50,[43],> 100 µM (inactive)
same,GI50,[45],> 100 µM (inactive)
same,GI50,[46],> 100 µM (inactive)
same,GI50,[47],> 100 µM (inactive)
same,GI50,[48],> 100 µM (inactive)
same,GI50,[49],> 100 µM (inactive)
same,GI50,[50],> 100 µM (inactive)
same,GI50,[51],> 100 µM (inactive)
same,GI50,[52],> 100 µM (inactive)
